For five molecules, IC50 and Ki results are on record in patent US20220125959A1, “PROSTATE-SPECIFIC MEMBRANE ANTIGEN (PSMA) INHIBITORS AS DIAGNOSTIC AND RADIONUCLIDE THERAPEUTIC AGENTS” (FIVE ELEVEN PHARMA INC., priority 2019, published 2022).

Experiment [1] addresses T1, PSMA (Homo sapiens, UniProt Q04609). Put plainly: PSMA competitive binding, PC-3 PIP cells with [125I]MIP-1095. The arrangement: expressed in transfected cells; host or cells: PC-3 PIP cells. Particulars: n = 3 (a: n = 2); read-out: IC50 *(PC-3 PIP cells and [125I]MIP-1095). As for the experimental part:
(§1) In vitro binding assays were carried out to determine the PSMA binding affinity of various compounds. By incubating PSMA positive cells either with: 1). LNCaP with 0.2 nM [^68Ga]PSMA-11 or [^125I]MIP-1095, as the ligand, in the presence of 10 different concentrations of competing ligands; non-specific binding was defined with 20 μM 2-PMPA (2-(phosphonomethyl)pentanedioic acid); or 2). PC-3 PIP cells with [^125I]MIP-1095 (0.18 nM diluted in PBS) in presence of different concentration of test compounds ([…] diluted in PBS containing 0.1% bovine serum albumin). Nonspecific binding (NSB) was defined with 2 μM the known PSMA inhibitor, PSMA-617. After incubation at 37° C. for 1 h, the bound and free fractions were separated by vacuum filtration through GF/B filters using a Brandel M-24R cell harvester. The filters were washed twice with cold Tris-HCl buffer (50 mM, pH=7.4), and the radioactivity on the filters was counted in a gamma counter (Wizard^2, Perkin-Elmer) with 50% efficiency. The nonspecific bound was less than 10% of the total bound. Data were analyzed using GraphPad Prism 6.0 with a nonlinear regression algorithm to obtain the half maximal inhibitory concentration (IC50).
(§2) The binding affinities to PSMA of the test compounds were measured by a competitive binding assay using either LNCap or PC-3 PIP cells suspension and the known radiotracers known to have high affinity and specificity to PSMA, [^68Ga]PSMA-11 or [^125I]MIP-1095. The IC50 values of four iodinated compounds, three DOTA, DOTAG and DOTA(GA)2 related compounds and two known PSMA inhibitors are shown in Table 1. Complexes of compound 4 and natural Ga and natural Lu were also tested. […] After labeling with radioisotope they are expected to bind to the tumor tissues over expressing PSMA binding sites.
Target sequence in this assay (Q04609 whole entry, species assumed): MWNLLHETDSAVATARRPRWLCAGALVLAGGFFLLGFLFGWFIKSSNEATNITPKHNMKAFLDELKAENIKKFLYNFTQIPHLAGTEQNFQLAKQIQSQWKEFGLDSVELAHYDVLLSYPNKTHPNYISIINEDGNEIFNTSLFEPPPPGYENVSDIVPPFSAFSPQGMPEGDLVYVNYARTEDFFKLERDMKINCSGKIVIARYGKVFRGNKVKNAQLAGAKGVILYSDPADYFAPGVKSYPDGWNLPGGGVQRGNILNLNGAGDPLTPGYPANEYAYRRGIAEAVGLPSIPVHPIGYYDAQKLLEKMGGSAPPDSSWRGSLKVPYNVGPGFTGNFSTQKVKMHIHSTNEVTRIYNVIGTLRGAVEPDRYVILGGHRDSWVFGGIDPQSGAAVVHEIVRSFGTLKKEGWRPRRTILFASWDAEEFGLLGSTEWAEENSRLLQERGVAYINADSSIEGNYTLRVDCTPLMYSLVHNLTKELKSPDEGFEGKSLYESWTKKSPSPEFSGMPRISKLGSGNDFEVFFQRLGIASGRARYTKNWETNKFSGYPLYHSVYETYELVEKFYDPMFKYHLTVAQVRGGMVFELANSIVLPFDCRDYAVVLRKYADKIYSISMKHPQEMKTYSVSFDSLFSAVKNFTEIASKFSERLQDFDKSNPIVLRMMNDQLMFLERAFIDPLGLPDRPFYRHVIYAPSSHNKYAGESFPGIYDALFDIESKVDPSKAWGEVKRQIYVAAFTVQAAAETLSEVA

Experiment [2] addresses T1, PSMA. Description: PSMA competitive binding, LNCaP cells with [68Ga]PSMA-11. The arrangement: LNCaP with 0.2 nM; endogenous in cells; host or cells: LNCaP cells (suspension). To be noted: n = 3; read-out: IC50 (LNCaP human PCa cells and [68Ga]PSMA-11). As for the experimental part: as §1, §2
Target sequence in this assay (Q04609 whole entry): as the sequence (Q04609 whole entry, species assumed) above
In experiment [3] the target is T1, PSMA. More on the design: expressed in transfected cells; host or cells: PC-3 PIP cells. To be noted: ^131I labeled MIP-1095; read-out: PSMA binding affinity Ki; cited from earlier work.
Target sequence in this assay (Q04609 whole entry, species assumed): as above

A word on the IC50: it is the point on the concentration scale where inhibition reaches its midpoint. One may read the Ki as the equilibrium dissociation constant of an inhibitor or competing ligand from its target.

As for `O=C(O)CCC(C(=O)O)N1CCN(CC(=O)O)CCN(C(CCC(=O)NCC(=O)N[C@@H](Cc2ccc(OCC(=O)N[C@@H](Cc3ccccc3)C(=O)NCCCC[C@H](NC(=O)N[C@@H](CCC(=O)O)C(=O)O)C(=O)O)cc2)C(=O)O)C(=O)O)CCN(CC(=O)O)CC1` (stereo partly drawn) [Compound 4, (4S,11S,15S)-4-benzyl-1-(4-((2S)-2-(2-(4-(4,10-bis(carboxymethyl)-7-(1,3-dicarboxypropyl)-1,4,7,10-tetraazacyclododecan-1-yl)-4-carboxybutanamido)acetamido)-2-carboxyethyl)phenoxy)-2,5,13-trioxo-3,6,12,14-tetraazaheptadecane-11,15,17-tricarboxylic acid], the 50% inhibitory concentration (IC50) was determined as 33.9 ± 2.38 nM at PSMA [1] and 28.7 ± 1.7 nM at PSMA [2]. As to `O=C(O)CC[C@H](NC(=O)N[C@@H](CCCCNC(=O)[C@H](Cc1ccccc1)NC(=O)COc1ccc(C[C@H](NC(=O)CNC(=O)CCC(C(=O)O)N2CCN(CC(=O)O)CCN(C(CCC(=O)NCCOCCOCCNC(=O)CCCc3ccc(I)cc3)C(=O)O)CCN(CC(=O)O)CC2)C(=O)O)cc1)C(=O)O)C(=O)O` (stereo partly drawn) [Compound 7, (4S,11S,15S)-4-benzyl-1-(4-((2S)-2-carboxy-2-(2-(4-carboxy-4-(7-(1-carboxy-18-(4-iodophenyl)-4,15-dioxo-8,11-dioxa-5,14-diazaoctadecyl)-4,10-bis(carboxymethyl)-1,4,7,10-tetraazacyclododecan-1-yl)butanamido)acetamido)ethyl)phenoxy)-2,5,13-trioxo-3,6,12,14-tetraazaheptadecane-11,15,17-tricarboxylic acid], the IC50 was 13.6 ± 1.02 nM at PSMA [1] and 15.4 ± 0.8 nM at PSMA [2]. Take `O=C(O)CC[C@H](NC(=O)N[C@@H](CCCCNC(=O)[C@H](Cc1ccccc1)NC(=O)COc1ccc(C[C@H](NC(=O)CNC(=O)CCC(C(=O)O)N2CCN(CC(=O)O)CCN(CC(=O)O)CCN(CC(=O)O)CC2)C(=O)NCC(=O)NC(P(=O)(O)O)P(=O)(O)O)cc1)C(=O)O)C(=O)O` (stereo partly drawn) [Compound 51, (((1S)-1-Carboxy-5-((2S)-2-(2-(4-((2S)-2-(2-(4-carboxy-4-(4,7,10-tris(carboxymethyl)-1,4,7,10-tetraazacyclododecan-1-yl)butanamido)acetamido)-3-((2-((diphosphonomethyl)amino)-2-oxoethyl)amino)-3-oxopropyl)phenoxy)acetamido)-3-phenylpropanamido)pentyl)carbamoyl)-L-glutamic acid]: the IC50 on PSMA [2] was determined as 10.7 ± 1.6 nM.

For `O=C(O)CC[C@H](NC(=O)N[C@@H](CCCCNC(=O)Nc1ccc(I)cc1)C(=O)O)C(=O)O` [MIP-1095], on PSMA [3], the Ki was 4.6 nM.

Regarding `O=C(O)CC[C@H](NC(=O)N[C@@H](CCCCNC(=O)[C@H](Cc1ccc2ccccc2c1)NC(=O)[C@H]1CC[C@H](CNC(=O)CN2CCN(CC(=O)O)CCN(CC(=O)O)CCN(CC(=O)O)CC2)CC1)C(=O)O)C(=O)O` [PSMA-617, 2-[3-(1-Carboxy-5-(3-naphthalen-2-yl-2-[(4-([2-(4,7,10-tris-carboxymethyl-1,4,7,10-tetraaza-cyclododec-1-yl)-acetylamino]-methyl)-cyclohexanecarbonyl)-amino]-Propionylamino)-pentyl)-ureido]-pentanedioic acid, reference compound], the concentration for half-maximal inhibition (IC50) on PSMA [1] was 10.9 ± 0.37 nM; at PSMA [2] it was 11.1 ± 0.8 nM.
